In patent US20190255175A1, “ACTIVATION OF TRPA1+ NOCICEPTORS IN THE VAGUS NERVE ATTENUATES SYSTEMIC INFLAMMATION” (THE FEINSTEIN INSTITUTE FOR MEDICAL RESEARCH, priority 2018, published 2019):

How the values were obtained:
[1] = test system: nodose ganglion neurons; assay: Whole-cell patch clamp recordings of nodose ganglion neurons; type: cell-based, mice
Description: Whole-cell patch clamp recordings were made with glass pipettes pulled on a P-97 electrode puller (Sutter Instruments, Novato, Calif.). The resistance of the pipettes was 2-4 MΩ when filled with an intracellular solution (in mM: CsCl 140, HEPES 10, EGTA 5, Mg-ATP 2, NaGTP 0.3, MgCl2 2, Phosphocreatine 10, pH 7.25 adjusted with CsOH). Cells were superfused at a rate of 2 ml/min with an external bath solution containing the following (in mM): 150 NaCl, 2.5 KCl, 10 HEPES, 10 D-glucose, 2 CaCl2, and 1 MgCl2, pH 7.3-7.4. Experiments were performed at room temperature (22-24° C.). Currents from neurons were monitored with an Multiclamp 700B amplifier (Molecular Devices, Union City, Calif.), acquired through Digidata 1550B (Molecular Devices) onto a computer using pClamp 11 software (Molecular Devices). Data were analyzed using Clampfit 11 (Molecular Devices). All chemicals used for electrophysiological recordings were purchased from Sigma. All drugs and solutions were made fresh from drug stock solutions.
Using patch clamp recordings, IL-1β responses were recorded in nodose ganglion neurons. Application of IL-1β (20 μg/ml) induced calcium influx as indicated by increase of fluorescence in 6 out of 332 (1.8%) sensory nodose ganglion neurons from VGlut2-GCaMP3 mice. Next, whole-cell patch clamp recordings were carried out on the same neurons that responded to IL-1β in calcium influx analysis. When the membrane potential was held at −65 mV, bath application of IL-1β (20 μg/ml) produced slow inward currents in 4 out of 332 (1.2%) nodose neurons. The amplitude of IL-1β induced currents are 108±23 pA (n=4). […] In current-clamp mode, IL-1β reduced action potential threshold from −25±2 mV to −31±3 mV (n=4). […] To further determine the potential interaction of TRPA1 with IL-1β, nodose ganglion neurons from TRPA1 KO mice were examined in a culture system. […] IL1R1 co-localizes with TRPA1 on nodose ganglion neurons, as was determined using immunohistochemical staining.

[2] = Thermoregulation: intraperitoneal body temperature recorded by implant after IL-1β injection; type: in vivo, mice; conditions: for Change in ip body temperature: WT mice
Description: FIG. 5A-5B. […] Body temperature was recorded using an ETA-F10 temperature implant (DSI New Brighton, Minn.) that was placed in the peritoneal cavity and fixed to the peritoneal wall. After recording the baseline temperature for 1 hr, rmIL-1β (5.0 μg/kg) was administered by i.p injection. Body temperature of wildtype (n=4) and TRPA1 KO mice (n=4) was recorded for 5 hours post injection. ****p<0.0001. B) IL-1β induces a dose-dependent hypothermic response in mice. After recording the baseline temperature for 1 hr, rmIL-1β (0 [n=4], 0.5 [n=4], 50.0 [n=3] μg/kg) was administered by i.p injection. Body temperature was recorded for 5 hours post injection.
Mice were anesthetized with 2.5% isoflurane with an oxygen flow of 1 L/min. Once anesthetized, the mouse was moved to a supine position with the isoflurane maintained at 2.0% during surgery. A midline incision was made above the peritoneal cavity, with a ETA-F10 temperature implant (DSI New Brighton, Minn.) placed in the peritoneal cavity and tacked to the peritoneal wall. The cavity was then closed, and the mouse monitored every day for 3 days. The mouse was allowed to recover for a minimum of five days prior to any manipulation. The mice were placed on the DIS with baseline ip body temperature recorded for 1 hour prior to IL-1β or saline injection. The ip body temperature recording then continued for 5 hours post injection.
Thermoregulation, specifically in cold sensing, is another major function of the TRPA1 ion channel. When housed at approximately 23° C., WT mice injected with murine IL-1β (5 μg/kg) have significant decrease in body temperature (t-test, p<0.0001) peaking at a temperature change of −2.3±0.15° C., while TRPA1 KO mice have no significant change in body temperature after IL-1β (5 μg/kg) peaking at 0.18±0.40° C. (FIG. 5A). […] However, there was no significant change in ip body temperature after saline ([…]) (t-test, p>0.05) (FIG. 5B). This indicates a previously unknown mechanism of IL-1β fever singling through TRPA1+ fibers of the vagus nerve, linking TRPA1's role in both thermoregulation as well as afferent inflammatory signaling through the vague nerve.

[3] = test system: vagus nerve; assay: Cervical vagus nerve electrophysiological recording after IL-1β challenge; type: in vivo, mice
Description: FIG. 3. TRPA1 is required for IL-1β induced vagus nerve signaling. Vagus nerve firing rate in 60s-Bins (mean±SEM) starting 5 min prior to IL-1β injection (350 ng/kg) indicated by arrow followed by 5 min post injection time.
Mice were induced with general anesthesia using isoflurane at 2.5% in 100% oxygen at a flow rate of 1 L/min. Once anesthetized, the mouse was moved to a supine position with the isoflurane maintained at 2.0% during surgery. The nerve was then isolated as described in previous publications^10,11,17. The core body temperature was monitored with a rectal probe and maintained around 37° C. with a heating pad and heat lamp. Prior to recording and nerve placement within the cuff, the electrode was submerged briefly in saline solution.
The electrophysiological signals were digitized from the vagus nerve using a Plexon data acquisition system (Omniplex, Plexon Inc., Dallas, Tex.). Recordings were sampled at 40 kHz with a 120 Hz filter and 50 gain. All signals were recorded from a bipolar cuff electrode referenced to the animal ground placed between the right salivary gland and the skin. In experiments with IL-1β challenge, following acquisition of the baseline activity (10 min), 350 ng/kg recombinant human IL-1β (eBioscience, San Diego, Calif.) was administered intraperitoneally; recordings were then continued for 10 min post-injection.
Analysis of raw recordings was done on Spike2 software (version 7, CED). Raw recordings were filtered (using a high pass filter) and smoothed. To identify neural signals, a user-specific adaptive threshold was employed. All signals were identified as neuronal or non-neuronal. Non-neuronal signals, which consisted mainly of cardiac and respiratory components, were manually removed. All recordings with no identifiable neuronal spikes were removed from analyses.
To recognize how knocking out TRPA1 further effects inflammatory signaling, TRPA1 KO and WT mice were injected with either saline or IL-1β ([…]).
To further determine fiber specificity, a TRPV1 cell depletion model was employed by breeding TRPV1-Cre mice with ROSA-DTA mice. […] To identify if TRPV1 itself is necessary for propagation of the signal, recordings were done in a genetic TRPV1 knockout (TRPV1 KO) mouse. […] To determine a molecular target on TRPV1+ neurons mediating afferent IL-1β signaling, the cation channel TRPA1 was identified. TRPA1 is found on a subset of TRPV1+ neurons; approximately 30%. However, TRPA1 co-localized with TRPV1 on 97% of TRPA1+ neurons^26.

Substance: IL-1β: interleukin 1β; recombinant human IL-1β for nerve recordings, murine (rmIL-1β) for thermoregulation
- Neurons with slow inward currents ([1]; IL-1β 20 μg/ml bath application, held at −65 mV, 4 out of 332 neurons): 1.2%
- Amplitude of IL-1β induced currents ([1]; IL-1β 20 μg/ml, −65 mV, n=4): 108±23 pA
- Action potential threshold after IL-1β ([1]; current-clamp mode, reduced from −25±2 mV, n=4): −31±3 mV
- Peak body temperature change ([2]; TRPA1 KO mice, IL-1β 5 μg/kg ip): 0.18±0.40 °C
- Peak body temperature change ([2]; WT mice housed at approximately 23° C., murine IL-1β 5 μg/kg ip): −2.3±0.15 °C
- Change in ip body temperature ([2]; IL-1β 0.5 μg/kg): significant decreases
- Change in ip body temperature ([2]; IL-1β 50 μg/kg): significant decreases
- Vagus nerve activation ([3]; TRPA1 KO mice): fails to induce activation of the vagus nerve
- Vagus nerve activity ([3]; TRPV1 KO mice): significant increase
- Vagus nerve activity ([3]; TRPV1 cell depletion model (TRPV1-Cre x ROSA-DTA mice)): No significant enhancement of vagus nerve activity
- Vagus nerve activation ([3]; wild type mice): induces activation of the vagus nerve
